# From paper PMC4770715, “LIM kinase inhibitors disrupt mitotic microtubule organization and impair tumor cell proliferation” (Oncotarget, 2015)
# Tests used:
# Assay in all cases: biochemical
# Design in all cases: KINOMEscan active-site competition binding, percent of control (100 = no competition)
# Conditions in all cases: competition binding, percent control
# [1] = molecular target: T1, ABL1(T315I)-phosphorylated (Homo sapiens, UniProt P00519, T315I)
# T1 construct: phosphorylated
# ADCK4 = molecular target: T2, ADCK4 (Homo sapiens, UniProt Q96D53)
# T2 construct: gene COQ8B
# HUNK = HUNK (Homo sapiens, UniProt P57058)
# Chain of HUNK (P57058 whole entry): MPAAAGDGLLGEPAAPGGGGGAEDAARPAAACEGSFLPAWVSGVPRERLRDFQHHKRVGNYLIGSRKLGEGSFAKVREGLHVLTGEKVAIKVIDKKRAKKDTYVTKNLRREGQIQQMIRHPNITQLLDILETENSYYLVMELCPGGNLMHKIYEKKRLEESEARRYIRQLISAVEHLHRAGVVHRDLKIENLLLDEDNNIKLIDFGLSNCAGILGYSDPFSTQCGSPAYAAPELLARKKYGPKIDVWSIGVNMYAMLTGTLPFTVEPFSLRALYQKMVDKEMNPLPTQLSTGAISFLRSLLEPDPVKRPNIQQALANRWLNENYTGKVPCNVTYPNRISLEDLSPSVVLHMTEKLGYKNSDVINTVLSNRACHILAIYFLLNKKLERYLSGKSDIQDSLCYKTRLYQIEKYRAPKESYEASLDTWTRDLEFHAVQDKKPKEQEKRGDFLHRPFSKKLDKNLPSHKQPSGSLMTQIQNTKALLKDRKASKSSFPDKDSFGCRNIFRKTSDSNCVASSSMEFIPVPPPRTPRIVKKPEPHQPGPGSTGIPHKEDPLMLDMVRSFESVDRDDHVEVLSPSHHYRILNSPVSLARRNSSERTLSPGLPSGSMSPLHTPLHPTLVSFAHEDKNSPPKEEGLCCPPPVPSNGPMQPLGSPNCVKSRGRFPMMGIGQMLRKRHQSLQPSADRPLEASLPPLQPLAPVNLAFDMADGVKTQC
# ICK = molecular target: T3, ICK (Homo sapiens, UniProt Q9UPZ9)
# T3 construct: gene CILK1
# [2] = molecular target: T4, JAK2(JH1domain-catalytic) (Homo sapiens, UniProt O60674)
# T4 construct: JH1domain-catalytic
# JNK2 = molecular target: T5, JNK2 (Homo sapiens, UniProt P45984)
# T5 construct: gene MAPK9
# KIT(D816V) = KIT(D816V) (Homo sapiens, UniProt P10721, D816V)
# LKB1 = molecular target: T6, LKB1 (Homo sapiens, UniProt Q15831)
# T6 construct: gene STK11
# MAPKAPK2 = MAPKAPK2 (Homo sapiens, UniProt P49137)
# Chain of MAPKAPK2 (P49137 whole entry): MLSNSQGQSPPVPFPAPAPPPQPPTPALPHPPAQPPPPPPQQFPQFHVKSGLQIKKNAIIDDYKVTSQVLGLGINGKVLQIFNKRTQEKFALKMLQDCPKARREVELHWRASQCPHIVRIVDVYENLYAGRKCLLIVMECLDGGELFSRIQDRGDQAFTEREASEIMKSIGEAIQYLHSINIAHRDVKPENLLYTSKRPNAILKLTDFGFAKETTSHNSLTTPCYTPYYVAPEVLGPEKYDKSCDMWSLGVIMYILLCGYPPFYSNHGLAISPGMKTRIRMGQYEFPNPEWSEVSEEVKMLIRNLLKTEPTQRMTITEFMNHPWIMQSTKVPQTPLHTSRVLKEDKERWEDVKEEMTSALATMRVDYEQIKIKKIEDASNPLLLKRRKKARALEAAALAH
# MEK1 = molecular target: T7, MEK1 (Homo sapiens, UniProt Q02750)
# T7 construct: gene MAP2K1
# MKNK2 = MKNK2 (Homo sapiens, UniProt Q9HBH9)
# MYLK2 = MYLK2 (Homo sapiens, UniProt Q9H1R3)
# Chain of MYLK2 (Q9H1R3 whole entry): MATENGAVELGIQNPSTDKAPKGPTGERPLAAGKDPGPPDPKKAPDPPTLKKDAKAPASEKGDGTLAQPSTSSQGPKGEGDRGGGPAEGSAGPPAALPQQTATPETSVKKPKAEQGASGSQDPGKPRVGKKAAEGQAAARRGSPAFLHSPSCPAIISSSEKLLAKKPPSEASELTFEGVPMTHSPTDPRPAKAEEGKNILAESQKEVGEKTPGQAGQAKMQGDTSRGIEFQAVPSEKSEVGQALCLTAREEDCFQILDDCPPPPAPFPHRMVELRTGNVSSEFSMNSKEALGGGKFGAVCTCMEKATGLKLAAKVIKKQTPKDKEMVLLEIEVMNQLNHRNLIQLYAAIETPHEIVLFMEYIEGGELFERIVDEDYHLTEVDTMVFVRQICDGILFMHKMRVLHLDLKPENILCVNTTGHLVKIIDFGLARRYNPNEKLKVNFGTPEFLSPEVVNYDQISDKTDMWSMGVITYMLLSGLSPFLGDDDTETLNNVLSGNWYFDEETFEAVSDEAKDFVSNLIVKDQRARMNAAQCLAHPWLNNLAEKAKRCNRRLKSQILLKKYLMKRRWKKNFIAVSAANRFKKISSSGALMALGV
# PIK3CA(E542K) = PIK3CA(E542K) (Homo sapiens, UniProt P42336, E542K)
# Chain of PIK3CA(E542K) (P42336 whole entry E542K): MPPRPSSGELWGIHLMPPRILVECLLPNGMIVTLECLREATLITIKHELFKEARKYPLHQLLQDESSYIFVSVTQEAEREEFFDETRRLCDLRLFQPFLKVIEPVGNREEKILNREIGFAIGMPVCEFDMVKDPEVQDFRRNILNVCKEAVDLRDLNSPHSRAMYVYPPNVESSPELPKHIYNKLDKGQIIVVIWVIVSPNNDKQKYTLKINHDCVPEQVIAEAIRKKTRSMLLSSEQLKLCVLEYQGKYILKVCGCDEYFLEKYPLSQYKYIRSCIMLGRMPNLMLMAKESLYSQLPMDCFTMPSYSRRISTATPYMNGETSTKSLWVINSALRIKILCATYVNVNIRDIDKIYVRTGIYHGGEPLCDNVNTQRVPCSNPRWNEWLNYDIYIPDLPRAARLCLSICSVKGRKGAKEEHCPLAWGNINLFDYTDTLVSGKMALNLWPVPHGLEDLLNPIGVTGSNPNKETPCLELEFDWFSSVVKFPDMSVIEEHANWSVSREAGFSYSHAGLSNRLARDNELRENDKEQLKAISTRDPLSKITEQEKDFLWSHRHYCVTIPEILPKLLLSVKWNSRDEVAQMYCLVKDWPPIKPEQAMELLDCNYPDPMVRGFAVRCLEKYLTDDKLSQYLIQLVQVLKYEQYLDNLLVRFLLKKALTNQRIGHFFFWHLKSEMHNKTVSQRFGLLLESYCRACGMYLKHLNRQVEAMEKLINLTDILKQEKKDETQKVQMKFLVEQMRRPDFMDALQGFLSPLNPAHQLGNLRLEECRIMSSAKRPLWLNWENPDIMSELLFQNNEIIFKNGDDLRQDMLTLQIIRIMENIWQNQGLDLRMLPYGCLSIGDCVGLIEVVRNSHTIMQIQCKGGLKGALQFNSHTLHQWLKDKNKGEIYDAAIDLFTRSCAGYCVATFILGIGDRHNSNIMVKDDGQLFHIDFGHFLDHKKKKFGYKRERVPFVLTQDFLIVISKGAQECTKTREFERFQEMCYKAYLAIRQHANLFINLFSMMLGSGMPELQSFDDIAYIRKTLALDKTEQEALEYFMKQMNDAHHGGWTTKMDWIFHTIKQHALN
# PIK3CA(E545A) = PIK3CA(E545A) (Homo sapiens, UniProt P42336, E545A)
# Chain of PIK3CA(E545A) (P42336 whole entry E545A): as the sequence (P42336 whole entry E542K) above, with K542E, E545A counted along it
# PIK3CA(H1047Y) = PIK3CA(H1047Y) (Homo sapiens, UniProt P42336, H1047Y)
# Chain of PIK3CA(H1047Y) (P42336 whole entry H1047Y): as the sequence (P42336 whole entry E542K) above, with K542E, H1047Y counted along it
# PRKR = molecular target: T8, PRKR (Homo sapiens, UniProt P19525)
# T8 construct: gene EIF2AK2
# T8 sequence (P19525 whole entry): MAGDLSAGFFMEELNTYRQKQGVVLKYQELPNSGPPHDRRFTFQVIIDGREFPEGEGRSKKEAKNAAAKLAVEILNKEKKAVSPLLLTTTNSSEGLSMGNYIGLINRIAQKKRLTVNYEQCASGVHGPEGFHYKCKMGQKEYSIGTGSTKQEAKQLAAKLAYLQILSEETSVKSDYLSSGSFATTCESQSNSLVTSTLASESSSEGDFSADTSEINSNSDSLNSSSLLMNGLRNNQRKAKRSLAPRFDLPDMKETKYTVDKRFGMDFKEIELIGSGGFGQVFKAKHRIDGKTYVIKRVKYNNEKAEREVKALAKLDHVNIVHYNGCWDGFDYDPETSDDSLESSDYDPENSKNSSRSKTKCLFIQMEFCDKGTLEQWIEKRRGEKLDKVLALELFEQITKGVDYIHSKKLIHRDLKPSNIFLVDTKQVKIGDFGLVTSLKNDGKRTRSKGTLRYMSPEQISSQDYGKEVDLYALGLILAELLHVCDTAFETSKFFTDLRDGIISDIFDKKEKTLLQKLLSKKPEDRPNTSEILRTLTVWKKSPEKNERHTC
# STK35 = STK35 (Homo sapiens, UniProt Q8TDR2)
# TAOK1 = TAOK1 (Homo sapiens, UniProt Q7L7X3)
# TLK1 = TLK1 (Homo sapiens, UniProt Q9UKI8)
# TRKC = molecular target: T9, TRKC (Homo sapiens, UniProt Q16288)
# T9 construct: gene NTRK3
# T9 sequence (Q16288 whole entry): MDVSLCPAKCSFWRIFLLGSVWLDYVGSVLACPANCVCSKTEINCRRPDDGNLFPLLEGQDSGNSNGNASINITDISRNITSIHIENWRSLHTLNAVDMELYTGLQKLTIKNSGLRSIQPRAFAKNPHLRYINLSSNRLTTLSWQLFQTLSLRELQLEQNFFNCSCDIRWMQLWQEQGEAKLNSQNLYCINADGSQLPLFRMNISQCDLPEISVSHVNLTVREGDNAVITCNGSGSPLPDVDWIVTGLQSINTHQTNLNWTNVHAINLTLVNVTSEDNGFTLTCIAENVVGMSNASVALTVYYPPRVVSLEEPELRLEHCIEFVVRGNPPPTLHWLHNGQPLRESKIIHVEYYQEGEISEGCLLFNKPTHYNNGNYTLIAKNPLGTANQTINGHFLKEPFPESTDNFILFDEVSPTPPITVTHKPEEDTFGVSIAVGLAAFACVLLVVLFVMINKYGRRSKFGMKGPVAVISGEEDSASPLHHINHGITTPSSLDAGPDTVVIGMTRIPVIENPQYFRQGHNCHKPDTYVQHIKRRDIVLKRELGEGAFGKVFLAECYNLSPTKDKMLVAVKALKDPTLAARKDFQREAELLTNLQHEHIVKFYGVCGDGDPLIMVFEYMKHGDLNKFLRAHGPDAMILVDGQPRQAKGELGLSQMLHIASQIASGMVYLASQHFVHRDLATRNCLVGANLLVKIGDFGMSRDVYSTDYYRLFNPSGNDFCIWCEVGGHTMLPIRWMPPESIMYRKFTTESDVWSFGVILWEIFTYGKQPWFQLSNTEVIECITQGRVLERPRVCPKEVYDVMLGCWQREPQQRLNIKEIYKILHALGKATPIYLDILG
# ULK2 = ULK2 (Homo sapiens, UniProt Q8IYT8)
# WEE1 = WEE1 (Homo sapiens, UniProt P30291)
# Chain of WEE1 (P30291 whole entry): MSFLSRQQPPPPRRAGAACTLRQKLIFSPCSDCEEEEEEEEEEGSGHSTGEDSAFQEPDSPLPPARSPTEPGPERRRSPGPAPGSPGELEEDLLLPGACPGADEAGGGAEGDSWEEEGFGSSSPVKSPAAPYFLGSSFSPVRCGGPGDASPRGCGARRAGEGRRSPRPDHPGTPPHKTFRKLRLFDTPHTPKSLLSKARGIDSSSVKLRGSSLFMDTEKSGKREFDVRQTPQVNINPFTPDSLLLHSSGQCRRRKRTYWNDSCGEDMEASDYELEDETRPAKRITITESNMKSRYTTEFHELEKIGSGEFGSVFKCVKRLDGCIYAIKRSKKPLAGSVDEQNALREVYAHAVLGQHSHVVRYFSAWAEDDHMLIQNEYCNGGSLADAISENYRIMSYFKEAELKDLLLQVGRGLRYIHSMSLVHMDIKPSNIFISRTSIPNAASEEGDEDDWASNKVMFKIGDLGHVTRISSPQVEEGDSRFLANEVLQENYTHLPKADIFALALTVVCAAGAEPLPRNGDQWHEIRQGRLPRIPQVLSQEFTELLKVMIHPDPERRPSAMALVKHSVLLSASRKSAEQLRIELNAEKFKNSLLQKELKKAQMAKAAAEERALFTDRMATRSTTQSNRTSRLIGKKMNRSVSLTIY
# YANK2 = molecular target: T10, YANK2 (Homo sapiens, UniProt Q9NY57)
# T10 construct: gene STK32B
Structure (SMILES),remaining binding at 10 µM [1],remaining binding at 10 µM (ADCK4),remaining binding at 10 µM (HUNK),remaining binding at 10 µM (ICK),remaining binding at 10 µM [2],remaining binding at 10 µM (JNK2),remaining binding at 10 µM (KIT(D816V)),remaining binding at 10 µM (LKB1),remaining binding at 10 µM (MAPKAPK2),remaining binding at 10 µM (MEK1),remaining binding at 10 µM (MKNK2),remaining binding at 10 µM (MYLK2),remaining binding at 10 µM (PIK3CA(E542K)),remaining binding at 10 µM (PIK3CA(E545A)),remaining binding at 10 µM (PIK3CA(H1047Y)),remaining binding at 10 µM (PRKR),remaining binding at 10 µM (STK35),remaining binding at 10 µM (TAOK1),remaining binding at 10 µM (TLK1),remaining binding at 10 µM (TRKC),further results
"COc1ccc(-c2cnccc2-c2cnc(NC(=O)C(C)C)s2)c(C(F)(F)F)c1 [CRT0105446, N-{5-[3-(4-Methoxy-2-trifluoromethyl-phenyl)-pyridin-4-yl]-hiazol-2-yl}-isobutyramide]",99%,85%,89%,18%,100%,50%,83%,100%,100%,87%,68%,49%,100%,100%,94%,81%,98%,93%,100%,100%,remaining binding at 10 µM (ULK2): 100%; remaining binding at 10 µM (WEE1): 87%; remaining binding at 10 µM (YANK2): 100%
"Cc1ccc(-c2cnccc2-c2cnc(Nc3ccc(O)cc3)s2)c(Cl)c1 [CRT0105950, 4-{5-[3-(2-Chloro-4-methyl-phenyl)-pyridin-4-yl]-thiazol-2-ylamino}-phenol]",79%,58%,49%,19%,19%,30%,2.8%,79%,100%,51%,1.8%,49%,100%,100%,93%,53%,100%,17%,62%,0.6%,remaining binding at 10 µM (ULK2): 20%; remaining binding at 10 µM (WEE1): 48%; remaining binding at 10 µM (YANK2): 100%
